This data set can be described thus: logP determination through HPLC (EEC directive 79/831 Annex V. A8, gradient method, acetonitrile/0.1% aqueous phosphoric acid). It is filed as physicochemical. The conditions noted are these: for logP: Table 1, compounds of formula (I), HPLC gradient method, acetonitrile/0.1% aqueous phosphoric acid; for chromatographic logP: HPLC.

This is an account of results in patent US20070179295A1, “Triazolopyrimidines” (priority 2003, published 2007).

As usually defined, the chromatographic logP is a lipophilicity value derived from retention on a column. The low end stands for a more hydrophilic compound, the high end for a more lipophilic compound.

Compound `C[C@H](Nc1c(-c2ncccc2[N+](=O)[O-])c(Cl)nc2nc(C3CC3)nn12)C(F)(F)F` (single isomer, unassigned) [Example 16] gave a logP of 2.64.
Still for that read-out and setting: next, `C[C@H](Nc1c(-c2ncccc2[N+](=O)[O-])c(Cl)nc2nc(C3CC3)nn12)C(F)(F)F` (single isomer, unassigned) [Example 17]: 2.65 (Iso- mer).
For the compound `Cc1nc2nc(Cl)c(-c3ncccc3C(F)(F)F)c(N[C@@H](C)C(F)(F)F)n2n1` [Example 1, N-{5-chloro-2-methyl-6-[3-(trifluormethyl)-2-pyridinyl][1,2,4]triazolo-[1,5-a]pyrimidin-7-yl}-N-[(1S)-2,2,2-trifluor-1-methylethyl]amine], the chromatographic logP was found to be 2.38.
Where the note is “HPLC (gradient method)”, `Cc1nc2nc(Cl)c(-c3ncncc3Cl)c(NC(C)C(F)(F)F)n2n1` [Example 2, N-[5-chloro-6-(5-chloro-4-pyrimidinyl)-2-methyl[1,2,4]triazolo[1,5-a]pyrimidin-7-yl]-N-[(1S)-2,2,2-trifluor-1-methylethyl]amine] displayed a chromatographic logP of 2.13.
For the compound `CC1CCN(c2c(-c3ncccc3C(F)(F)F)c(Cl)nc3nc(C4CC4)nn23)CC1` [Example 3], the logP was 3.77.
With `FC1(F)CCN(c2c(-c3ncccc3C(F)(F)F)c(Cl)nc3nc(C4CC4)nn23)CC1` [Example 4], the logP came to 3.20.
In turn, `CC(Nc1c(-c2ncccc2C(F)(F)F)c(Cl)nc2nc(C3CC3)nn12)C(C)(C)C` (centres unmarked) [Example 5] showed a logP of 3.75.
`CC(C)C(C)Nc1c(-c2ncccc2C(F)(F)F)c(Cl)nc2nc(C3CC3)nn12` (centres unmarked) [Example 6] came in with a logP of 3.29.
`CC(Nc1c(-c2ncccc2C(F)(F)F)c(Cl)nc2nc(C3CC3)nn12)C(F)(F)F` (centres unmarked) [Example 7] registered a logP of 3.01.
`CC(Nc1c(-c2ncncc2Cl)c(Cl)nc2nc(C3CC3)nn12)C(F)(F)F` (centres unmarked) [Example 8]: the logP is listed as 2.69.
In turn, `Cc1nc2nc(Cl)c(-c3ncncc3Cl)c(NC(C)C(C)C)n2n1` (centres unmarked) [Example 9] displayed a logP of 2.31.
`Cc1nc2nc(Cl)c(-c3ncccc3C)c(N3CCC(C)CC3)n2n1` [Example 10]: the logP was determined as 3.09.
On the same count and under the same terms, the same measure for `Cc1nc2nc(Cl)c(-c3ncccc3C(F)(F)F)c(NC(C)C(C)(C)C)n2n1` (centres unmarked) [Example 11]: 2.99.
`Cc1nc2nc(Cl)c(-c3ncccc3C(F)(F)F)c(NC(C)C(C)C)n2n1` (centres unmarked) [Example 12] came in with a logP of 2.68.
`CC(C)C(C)Nc1c(-c2ncncc2Cl)c(Cl)nc2nc(C3CC3)nn12` (centres unmarked) [Example 15] showed a logP of 2.94.
Compound `CC(Nc1c(-c2ccccn2)c(Cl)nc2nc(C3CC3)nn12)C(C)(C)C` (centres unmarked) [Example 18] yielded a logP of 3.09.
With `C[C@H](Nc1c(-c2ncc([N+](=O)[O-])cc2Cl)c(Cl)nc2nc(C3CC3)nn12)C(F)(F)F` [Example 19], the logP is 3.26.
As to `CC(Nc1c(-c2ncccc2[N+](=O)[O-])c(Cl)nc2nc(C3CC3)nn12)C(C)(C)C` (centres unmarked) [Example 20], the logP stood at 3.21.
Same read-out and setting: next, `Cc1nc2nc(Cl)c(-c3ncccc3[N+](=O)[O-])c(NC(C)C(C)(C)C)n2n1` (centres unmarked) [Example 21]: 2.60; `CC(Nc1c(-c2ccccn2)c(Cl)nc2nc(C3CC3)nn12)C(F)(F)F` (centres unmarked) [Example 22]: 2.60; `CC(Nc1c(-c2ccccn2)c(Cl)nc2nc(C3CC3)nn12)C(F)(F)F` (centres unmarked) [Example 24]: 2.60.
In the case of `CC(C)C(C)Nc1c(-c2ncccc2[N+](=O)[O-])c(Cl)nc2nc(C3CC3)nn12` (centres unmarked) [Example 25], the logP is 2.82.
`CC(C)C(C)Nc1c(-c2ccccn2)c(Cl)nc2nc(C3CC3)nn12` (centres unmarked) [Example 27] gave a logP of 2.63.
Compound `CC(Nc1c(-c2nc([N+](=O)[O-])ccc2Cl)c(Cl)nc2nc(C3CC3)nn12)C(C)(C)C` (centres unmarked) [Example 28] gave a logP of 3.86.
`CC(C)c1nc2nc(Cl)c(-c3ncncc3Cl)c(NC(C)C(F)(F)F)n2n1` (centres unmarked) [Example 29] gave a logP of 2.90.
Regarding `FC(F)(F)CNc1c(-c2ncncc2Cl)c(Cl)nc2nc(C3CC3)nn12` [Example 30], the logP was found to be 2.37.
Turning to `CC(C)c1nc2nc(Cl)c(-c3ncncc3Cl)c(NCC(F)(F)F)n2n1` [Example 31], the logP was found to be 2.56.
As to `CC(C)C(C)Nc1c(-c2ncncc2Cl)c(Cl)nc2nc(C3CC3)nn12` (centres unmarked) [Example 32], the logP is on record as 3.12.
`CC(Nc1c(-c2ncncc2Cl)c(Cl)nc2nc(C3CC3)nn12)C(C)(C)C` (centres unmarked) [Example 33] registered a logP of 3.50.
Still for that read-out and setting: the same measure for `CC(C)c1nc2nc(Cl)c(-c3ncncc3Cl)c(NC(C)C(C)(C)C)n2n1` (centres unmarked) [Example 34]: 3.67; for `CC(Nc1c(-c2ncncc2Cl)c(Cl)nc2nc(C3CC3)nn12)C(C)(C)C` (centres unmarked) [Example 35]: 3.39.
For `CC(C)c1nc2nc(Cl)c(-c3ncncc3Cl)c(NC(C)C(C)C)n2n1` (centres unmarked) [Example 36], the logP is reported as 3.17.
`CC(C)C(C)Nc1c(-c2ncncc2Cl)c(Cl)nc2nc(C3CC3)nn12` (centres unmarked) [Example 37] gave a logP of 2.95.
As for `CC(Nc1c(-c2ncncc2Cl)c(Cl)nc2nc(C3CC3)nn12)C(F)(F)F` (centres unmarked) [Example 38], the logP came to 2.82.
On the same count and under the same terms, next, `FC(F)(F)CNc1c(-c2ccncc2Cl)c(Cl)nc2nc(C3CC3)nn12` [Example 40]: 2.48; `FC1(F)CCN(c2c(-c3ncncc3Cl)c(Cl)nc3nc(C4CC4)nn23)CC1` [Example 41]: 2.75; `CC(Nc1c(-c2ccncc2Cl)c(Cl)nc2nc(C3CC3)nn12)C(F)(F)F` (centres unmarked) [Example 42]: 2.82.
With `CC(C)C(C)Nc1c(-c2ccncc2Cl)c(Cl)nc2nc(C3CC3)nn12` (centres unmarked) [Example 43], the logP stood at 3.09.
Same read-out and setting: next, `CC(Nc1c(-c2ccncc2Cl)c(Cl)nc2nc(C3CC3)nn12)C(F)(F)F` (centres unmarked) [Example 44]: 2.78; `CC(Nc1c(-c2cc(Cl)sc2Cl)c(Cl)nc2nc(C3CC3)nn12)C(F)(F)F` (centres unmarked) [Example 46]: 4.32.
On the same count and under the same terms, the same measure for `FC(F)(F)CNc1c(-c2cc(Cl)sc2Cl)c(Cl)nc2nc(C3CC3)nn12` [Example 47]: 3.85; for `CC(C)Nc1c(-c2cc(Cl)sc2Cl)c(Cl)nc2nc(C3CC3)nn12` [Example 48]: 4.18; for `CC(C)(C)CNc1c(-c2cc(Cl)sc2Cl)c(Cl)nc2nc(C3CC3)nn12` [Example 50]: 5.08.
`CC(C)C(C)Nc1c(-c2ccsc2)c(Cl)nc2nc(C3CC3)nn12` (centres unmarked) [Example 52] returned a logP of 3.81.
The same measure, in the same setting: the same measure for `CC(C)C(C)Nc1c(-c2cc(Cl)sc2Cl)c(Cl)nc2nc(C3CC3)nn12` (centres unmarked) [Example 53]: 5.03; for `CC1CCN(c2c(-c3ccsc3)c(Cl)nc3nc(C4CC4)nn23)CC1` [Example 55]: 4.23; for `FC1(F)CCN(c2c(-c3ccsc3)c(Cl)nc3nc(C4CC4)nn23)CC1` [Example 56]: 3.41.
Compound `C=C(C)CN(CC)c1c(-c2ccsc2)c(Cl)nc2nc(C3CC3)nn12` [Example 57] registered a logP of 4.13.
`COCCN(C)c1c(-c2cc(Cl)sc2Cl)c(Cl)nc2nc(C3CC3)nn12` [Example 58] returned a logP of 4.08.
Regarding `CC(Nc1c(-c2ccsc2)c(Cl)nc2nc(C3CC3)nn12)C(F)(F)F` (centres unmarked) [Example 59], the logP was determined as 3.29.
